Data from patent US11452702B2, “Compositions comprising amino acids for use in the treatment of mitochondrial dysfunction-related diseases” (PROFESSIONAL DIETETICS INTERNATIONAL S.R.L., priority 2017, dated 2022).

System: HL-1 cardiomyocytes
Assay: Oxygen consumption (Clark-type oxygen electrode) in HL-1 cardiomyocytes
Format: cell-based, Mus musculus
Details: HL-1 cells, 48 hr treatment, normalized to protein content; FIG. 5
Protocol: Oxygen consumption in HL-1 cardiomyocytes treated with amino acid based compositions or DETA-NO for 48 hr. ****p<0.001 vs. untreated cell; ####p<0.001 vs. BCAAem and B2.
An amount of 1 ml of HL-1 cardiomyocytes treated with the compositions shown in Table 1 was re-suspended in Hank's balanced salt solution (Sigma) and spun down to pellet cells. A number of HL-1 cells was also supplemented with a nitic oxide (NO) donor, specifically with diethylenetriamine-NO also called DETA-NO (Sigma-Aldrich, Milan, Italy), as positive control.
Then, cells were re-suspended in a respiration buffer (0.3 M mannitol, 10 mM KCl, 5 mM MgCl2, 10 mM K2PO4, pH 7.4) at a density of 3.0×10^6/ml.
Samples were analyzed at 37° C. in a gas-tight vessel equipped with a Clark-type oxygen electrode (Rank Brothers Ltd.) connected to a chart recorder.
The oxygen electrode was calibrated assuming the concentration of oxygen in the incubation medium as 200 μmol/l at 37° C.
Oxygen consumption was assessed with continuous mixing for about ten minutes. The slope of the trace recorder was then used to calculate oxygen consumption. Oxygen content may vary depending on the amount of cells. Thus, protein content, which directly correlates with cell content, has been used to normalize the oxygen consumption in cell samples. Protein content was determined by using the bicinchoninic acid protein (BCA) assay.

In the case of `NCCN(CCN)/[N+]([O-])=N/O` [DETA-NO, diethylenetriamine-NO], the oxygen consumption is reported as “rise”.
